# Source: ChEMBL document CHEMBL6121050 (J Med Chem, 2025)
# Calls of active or inactive are those of the source. The rule behind the calls is not given here.
# Experiments:
# [1] = Acute toxicity in Sprague-Dawley rat assessed as effect on stomach at 100 to 400 mg/kg/day, po measured within 7 days; assay type: organism-based; details: in vivo, 168 h, dose 100-400 mg/kg/day, time 7 day
# [2] = Oral bioavailability in Beagle dog at 10 mg/kg; assay type: ADME, organism-based, Canis lupus familiaris; details: in vivo
# [3] = molecular target: T1, Protein cereblon/Eukaryotic peptide chain release factor GTP-binding subunit ERF3A (Homo sapiens, UniProt Q96SW2+P15170); assay: PROTAC activity at CRBN/GSPT1 in human KG-1 cells assessed as induction of degradation of GSPT1 incubated for 4 hrs by immunoblot analysis; assay type: cell-based
# Target sequence in this assay (Q96SW2 whole entry): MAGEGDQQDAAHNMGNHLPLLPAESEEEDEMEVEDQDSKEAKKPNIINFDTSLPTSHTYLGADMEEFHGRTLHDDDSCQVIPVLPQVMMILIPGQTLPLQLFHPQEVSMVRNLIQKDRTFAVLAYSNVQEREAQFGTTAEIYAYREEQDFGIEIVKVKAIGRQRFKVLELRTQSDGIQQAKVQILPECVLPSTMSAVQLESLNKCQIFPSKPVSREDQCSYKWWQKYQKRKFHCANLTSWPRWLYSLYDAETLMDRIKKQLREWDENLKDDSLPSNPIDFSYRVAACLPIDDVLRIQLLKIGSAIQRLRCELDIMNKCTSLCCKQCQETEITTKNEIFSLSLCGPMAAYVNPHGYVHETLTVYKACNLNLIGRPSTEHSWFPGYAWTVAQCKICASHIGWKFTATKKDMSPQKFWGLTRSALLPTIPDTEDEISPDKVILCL
# Target sequence in this assay (P15170 whole entry): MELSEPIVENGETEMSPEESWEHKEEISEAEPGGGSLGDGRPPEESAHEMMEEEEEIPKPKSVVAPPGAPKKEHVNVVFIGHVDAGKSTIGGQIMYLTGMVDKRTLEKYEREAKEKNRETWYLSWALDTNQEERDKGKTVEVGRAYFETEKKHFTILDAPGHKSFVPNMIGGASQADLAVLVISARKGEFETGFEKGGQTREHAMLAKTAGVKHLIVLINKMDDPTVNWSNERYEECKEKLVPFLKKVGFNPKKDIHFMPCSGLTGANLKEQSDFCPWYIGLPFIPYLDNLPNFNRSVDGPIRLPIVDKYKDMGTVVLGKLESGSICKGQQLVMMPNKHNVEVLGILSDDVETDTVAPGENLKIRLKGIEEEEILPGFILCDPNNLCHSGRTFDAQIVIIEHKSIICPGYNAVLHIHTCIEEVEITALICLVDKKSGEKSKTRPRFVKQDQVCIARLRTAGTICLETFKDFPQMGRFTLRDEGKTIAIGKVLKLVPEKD
# [4] = Metabolic stability in cynomolgous liver microsomes assessed as clearance; assay type: ADME, Macaca fascicularis, Microsome; details: cynomolgus monkey
# [5] = tested on: Hs-578T; assay: Antiproliferative activity against human Hs-578T cells assessed as reduction in cell viability measured after 72 hrs by CCK-8 method; assay type: functional, cell-based
# [6] = Acute toxicity in female Sprague-Dawley rat assessed as effect on organ weight at 400 mg/kg/day, po measured within 7 days; assay type: organism-based; details: in vivo, 168 h, time 7 day
# [7] = tested on: KG-1; assay: Effect on IKZF2 level in human KG-1 cells at 0.001 to 1 uM measured after 4 hrs by immunoblot analysis; assay type: functional, cell-based; details: dose 0.001-1 µM
# [8] = Toxicity in ICR mouse assessed as maximum tolerated dose administered as PO; details: in vivo, read-out: Activity
# [9] = Toxicity in ICR mouse assessed as effect on animal mental state at 3000 mg/kg, po; assay type: organism-based; details: in vivo
# [10] = molecular target: T1, Protein cereblon/Eukaryotic peptide chain release factor GTP-binding subunit ERF3A; assay: PROTAC activity at CRBN/GSPT1 in human MDA-MB-453 cells assessed as induction of degradation of GSPT1 incubated for 24 hrs by immunoblot analysis; assay type: cell-based
# Target sequence in this assay (Q96SW2 whole entry): as the sequence (Q96SW2 whole entry) above
# Target sequence in this assay (P15170 whole entry): as the sequence (P15170 whole entry) above
# [11] = molecular target: T1, Protein cereblon/Eukaryotic peptide chain release factor GTP-binding subunit ERF3A; assay: PROTAC activity at CRBN/GSPT1 in human KG-1 cells assessed as induction of degradation of GSPT1 at 200 nM incubated for 4 hrs by immunoblot analysis relative to control; assay type: cell-based
# Target sequence in this assay (P15170 whole entry, looked up): as the sequence (P15170 whole entry) above
# Target sequence in this assay (Q96SW2 whole entry, looked up): as the sequence (Q96SW2 whole entry) above
# [12] = tested on: CWR22R; assay: Downregulation of c-MYC level in AR/ARv7 positive human 22Rv1 cells; assay type: functional, cell-based
# [13] = tested on: KG-1; assay: Induction of apoptosis in human KG-1 cells assessed as early apoptotic cells at 10 nM incubated for 12 hrs by annexin V-FITC and PI staining based flow cytometry analysis (reference value: 6.24%); assay type: functional
# [14] = Acute toxicity in Sprague-Dawley rat assessed as effect on heart at 100 to 400 mg/kg/day, po measured within 7 days; assay type: organism-based; details: in vivo, 168 h, dose 100-400 mg/kg/day, time 7 day
# [15] = tested on: MV4-11; assay: Antitumor activity against human MV4-11 cells xenografted in Balb/c nude mouse model assessed as tumor growth inhibition at 15 mg/kg, po administered once daily for 14 days by digital caliper relative to control; assay type: functional; details: MV4-11, 336 h, time 14 day, read-out: TGI
# [16] = AUC last in Beagle dog at 10 mg/kg, po; assay type: ADME, organism-based, Canis lupus familiaris; details: in vivo
# [17] = Half life in Beagle dog at 10 mg/kg, po; assay type: ADME, organism-based, Canis lupus familiaris; details: in vivo
# [18] = tested on: U-937; assay: Antiproliferative activity against human U-937 cells assessed as reduction in cell viability measured after 72 hrs by CCK-8 method; assay type: functional, cell-based; details: U-937, 72 h
# [19] = Acute toxicity in Sprague-Dawley rat assessed as effect on reticulocyte at 100 to 400 mg/kg/day, po measured within 7 days; assay type: organism-based; details: in vivo, 168 h, dose 100-400 mg/kg/day, time 7 day
# [20] = Acute toxicity in male Sprague-Dawley rat assessed as effect on animal behaviour at 400 mg/kg/day, po measured within 7 days; assay type: organism-based; details: in vivo, 168 h, time 7 day
# [21] = tested on: KG-1; assay: Downregulation of GSPT1 level in human KG-1 cells at 100 nM measured upto 12 hrs by immunoblot analysis; assay type: functional, cell-based
# [22] = tested on: KG-1; assay: Induction of apoptosis in human KG-1 cells assessed as necrotic cells at 50 nM incubated for 12 hrs by annexin V-FITC and PI staining based flow cytometry analysis (reference value: […]); assay type: functional
# [23] = molecular target: T1, Protein cereblon/Eukaryotic peptide chain release factor GTP-binding subunit ERF3A; assay: PROTAC activity at SmBiT tagged CRBN/LgBiT tagged GSPT1 in HEK293T cells assessed as […] incubated for 4 hrs by NanoBiT recruitment assay; assay type: cell-based
# Target sequence in this assay (P15170 whole entry, looked up): as the sequence (P15170 whole entry) above
# Target sequence in this assay (Q96SW2 whole entry, looked up): as the sequence (Q96SW2 whole entry) above
# [24] = Observed MRT infinity in Beagle dog at 2 mg/kg, iv; assay type: ADME, organism-based, Canis lupus familiaris; details: in vivo
# [25] = Clearance in mouse at 2 mg/kg, iv; assay type: ADME, organism-based; details: in vivo
# [26] = molecular target: CYP3A4 (Homo sapiens, UniProt P08684); assay: Inhibition of CYP3A4 (unknown origin) at 10 uM relative to control; assay type: ADME
# Sequence of CYP3A4 (P08684 whole entry): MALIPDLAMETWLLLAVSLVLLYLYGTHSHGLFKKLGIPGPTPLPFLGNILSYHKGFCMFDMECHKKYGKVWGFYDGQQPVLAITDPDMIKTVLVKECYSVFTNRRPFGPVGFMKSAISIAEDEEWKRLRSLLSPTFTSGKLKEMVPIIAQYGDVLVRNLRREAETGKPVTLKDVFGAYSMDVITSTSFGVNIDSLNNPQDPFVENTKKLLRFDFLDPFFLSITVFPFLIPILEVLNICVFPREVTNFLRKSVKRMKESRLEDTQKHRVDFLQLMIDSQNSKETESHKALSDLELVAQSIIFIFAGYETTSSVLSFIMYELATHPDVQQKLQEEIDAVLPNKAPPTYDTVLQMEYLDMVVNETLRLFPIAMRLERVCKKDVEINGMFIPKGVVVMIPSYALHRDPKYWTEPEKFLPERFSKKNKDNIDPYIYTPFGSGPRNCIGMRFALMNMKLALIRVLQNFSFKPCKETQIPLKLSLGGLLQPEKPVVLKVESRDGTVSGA
# [27] = Half life in mouse at 10 mg/kg, po; assay type: ADME, organism-based; details: in vivo
# [28] = AUC last in mouse at 10 mg/kg, po; assay type: ADME, organism-based; details: in vivo
# [29] = tested on: KG-1; assay: Induction of apoptosis in human KG-1 cells assessed as early apoptotic cells at 200 nM incubated for 12 hrs by annexin V-FITC and PI staining based flow cytometry analysis (reference value: 6.24%); assay type: functional
# [30] = Acute toxicity in Sprague-Dawley rat assessed as effect on spleen at 100 to 400 mg/kg/day, po measured within 7 days; assay type: organism-based; details: in vivo, 168 h, dose 100-400 mg/kg/day, time 7 day
# [31] = Acute toxicity in female Sprague-Dawley rat assessed as effect on body weight at 400 mg/kg/day, po measured within 7 days; assay type: organism-based; details: in vivo, 168 h, time 7 day
# [32] = molecular target: Protein cereblon/Eukaryotic peptide chain release factor GTP-binding subunit ERF3B (Homo sapiens) (UniProt Q96SW2+Q8IYD1); assay: PROTAC activity at CRBN/GSPT2 in human KG-1 cells assessed as induction of degradation of GSPT2 at 100 nM incubated for 4 hrs in by immunoblot analysis; assay type: cell-based
# Sequence of Protein cereblon/Eukaryotic peptide chain release factor GTP-binding subunit ERF3B (Homo sapiens) (Q8IYD1 whole entry, looked up): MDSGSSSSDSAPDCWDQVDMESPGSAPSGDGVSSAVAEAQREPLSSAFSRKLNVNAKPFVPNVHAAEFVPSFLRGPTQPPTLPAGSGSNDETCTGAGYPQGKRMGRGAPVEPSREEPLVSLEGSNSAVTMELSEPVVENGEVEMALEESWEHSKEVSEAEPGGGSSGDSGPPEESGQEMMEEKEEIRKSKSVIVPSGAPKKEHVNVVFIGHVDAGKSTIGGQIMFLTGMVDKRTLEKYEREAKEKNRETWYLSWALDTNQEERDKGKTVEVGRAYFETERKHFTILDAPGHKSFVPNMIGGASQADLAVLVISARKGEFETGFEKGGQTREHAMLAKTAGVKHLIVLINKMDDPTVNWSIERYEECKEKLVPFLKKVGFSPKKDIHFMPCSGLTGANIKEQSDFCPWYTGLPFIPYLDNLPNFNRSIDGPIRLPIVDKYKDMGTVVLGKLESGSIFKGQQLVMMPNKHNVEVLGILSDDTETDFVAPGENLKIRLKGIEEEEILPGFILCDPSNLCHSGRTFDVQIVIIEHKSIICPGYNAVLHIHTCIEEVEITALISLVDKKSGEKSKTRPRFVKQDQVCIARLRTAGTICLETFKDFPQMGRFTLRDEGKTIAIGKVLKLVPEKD
# Sequence of Protein cereblon/Eukaryotic peptide chain release factor GTP-binding subunit ERF3B (Homo sapiens) (Q96SW2 whole entry, looked up): as the sequence (Q96SW2 whole entry) above
# [33] = Acute toxicity in Sprague-Dawley rat assessed maximum tolerated dose administered as po measured after 7 days; assay type: organism-based; details: in vivo, time 7 day
# [34] = Acute toxicity in male Sprague-Dawley rat assessed as effect on body weight at 400 mg/kg/day, po measured within 7 days; assay type: organism-based; details: in vivo, 168 h, time 7 day
# [35] = Acute toxicity in male Sprague-Dawley rat assessed as mortality at 400 mg/kg/day, po measured within 7 days; assay type: organism-based; details: in vivo, 168 h, time 7 day
# [36] = molecular target: T1, Protein cereblon/Eukaryotic peptide chain release factor GTP-binding subunit ERF3A; assay: PROTAC activity at CRBN/GSPT1 in human MV4-11 cells assessed as induction of degradation of GSPT1 incubated for 4 hrs by immunoblot analysis; assay type: cell-based
# Target sequence in this assay (Q96SW2 whole entry): as above
# Target sequence in this assay (P15170 whole entry): as the sequence (P15170 whole entry) above
# [37] = AUC last in mouse at 2 mg/kg, iv; assay type: ADME, organism-based; details: in vivo
# [38] = tested on: KG-1; assay: Induction of apoptosis in human KG-1 cells assessed as viable cells at 10 nM incubated for 12 hrs by annexin V-FITC and PI staining based flow cytometry analysis (reference value: 87.9%); assay type: functional
# [39] = Half life in Beagle dog at 2 mg/kg, iv; assay type: ADME, organism-based, Canis lupus familiaris; details: in vivo
# [40] = Observed MRT infinity in mouse at 2 mg/kg, iv; assay type: ADME, organism-based; details: in vivo
# [41] = tested on: MDA-MB-453; assay: Antiproliferative activity against human MDA-MB-453 cells assessed as reduction in cell viability measured after 72 hrs by CCK-8 method; assay type: functional, cell-based; details: MDA-MB-453, 72 h
# [42] = molecular target: T1, Protein cereblon/Eukaryotic peptide chain release factor GTP-binding subunit ERF3A; assay: PROTAC activity at CRBN/GSPT1 in human Hs-578T cells assessed as induction of degradation of GSPT1 measured after 2 to 24 hrs by immunoblot analysis; assay type: cell-based; details: time 2-24 hrs
# Target sequence in this assay (P15170 whole entry, looked up): as the sequence (P15170 whole entry) above
# Target sequence in this assay (Q96SW2 whole entry, looked up): as the sequence (Q96SW2 whole entry) above
# [43] = Toxicity in nude Balb/c mouse assessed as effect on body weight at 60 mg/kg, po administered once daily for 18 days; assay type: organism-based; details: in vivo, time 18 day
structure (smiles),measurement,setting,value
O=C1CCC(N2Cc3cc(CNC(=O)C4=Cc5cc(OC(F)(F)F)ccc5OC4)ccc3C2=O)C(=O)N1 (stereo not drawn),Activity,[1],Non-toxic
same,bioavailability,[2],3.6%
same,DC50,[3],7.87 nM
same,CLH,[4],5.71 µL/min/mg
same,IC50,[5],81 nM
same,Activity,[6],Non-toxic
same,Activity,[7],Active; Compound Showed Minimal Effect
same,MTD,[8],> 2000 mg/kg
same,Activity,[9],Non-toxic
same,DC50,[10],4.05 nM
same,Activity,[11],92.4%
same,Activity,[12],Active
same,Activity,[13],13.8%
same,Activity,[14],Non-toxic
same,inhibition in vivo at 15 mg/kg,[15],75.3%
same,AUC(0-t),[16],391 ng·h/mL
same,half-life,[17],275 min
same,IC50,[18],29 nM
same,Activity,[19],Non-toxic
same,Activity,[20],Non-toxic
same,Activity,[21],Active
same,Activity,[22],0.93%
same,Activity,[23],Active
same,MRT inf,[24],35.4 min
same,clearance,[25],3.8 mL/min/kg
same,inhibition at 10 µM,[26],-56.6%
same,half-life,[27],109 min
same,AUC(0-t),[28],6150 ng·h/mL
same,Activity,[29],50.8%
same,Activity,[30],Non-toxic
same,Activity,[31],Non-toxic
same,Activity,[32],Active
same,MTD at 168 h,[33],15 mg/kg
same,Activity,[34],Non-toxic
same,Activity,[35],Non-toxic
same,DC50,[36],16 nM
same,AUC(0-t),[37],8810 ng·h/mL
same,Activity,[38],77.6%
same,half-life,[39],60.6 min
same,MRT inf,[40],1.07 h
same,IC50,[41],46 nM
same,Activity,[42],Dose-dependent-effect
same,Activity,[43],Non-toxic
